PubChem BioAssay (NCI)
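Interpolation was linear, between the two tested concentrations surrounding the appropriate level; five concentrations were tested over 48 hours in 96-well plates. GI50: concentration for 50% inhibition of growth. TGI is the concentration that stops growth completely.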

Legend:
Experiment in all cases: NCI anticancer screen, dose series, 48 h
MDA-N = tested on: MDA-N
SK-OV-3 ovarian = tested on: SK-OV-3 ovarian
EKVX NSCLC = tested on: EKVX NSCLC
HS 578T breast = tested on: HS 578T breast
MALME-3M melanoma = tested on: MALME-3M melanoma
SK-MEL-28 melanoma = tested on: SK-MEL-28 melanoma
HL-60(TB) leukemia = tested on: HL-60(TB) leukemia
SR leukemia = tested on: SR leukemia
RPMI-8226 leukemia = tested on: RPMI-8226 leukemia
RXF 393 renal = tested on: RXF 393 renal
OVCAR-8 ovarian = tested on: OVCAR-8 ovarian
ACHN renal = tested on: ACHN renal
TK-10 renal = tested on: TK-10 renal
IGROV1 ovarian = tested on: IGROV1 ovarian
DU-145 prostate = tested on: DU-145 prostate
OVCAR-5 ovarian = tested on: OVCAR-5 ovarian
MDA-MB-435 = tested on: MDA-MB-435

## CN1CCC23c4c5ccc(Oc6nnnn6-c6ccccc6)c4OC2c2[nH]c4ccccc4c2CC3(O)C1C5 (stereo not drawn)
MDA-N
  TGI: 3.26 µM
SK-OV-3 ovarian
  TGI: 25.4 µM
EKVX NSCLC
  TGI: 24.2 µM
HS 578T breast
  TGI: 33.9 µM
MALME-3M melanoma
  TGI: 3.11 µM
SK-MEL-28 melanoma
  TGI: 4.73 µM
HL-60(TB) leukemia
  TGI: 3.69 µM
SR leukemia
  TGI: 3.72 µM
RPMI-8226 leukemia
  TGI: 6.06 µM
RXF 393 renal
  TGI: 5.67 µM
OVCAR-8 ovarian
  TGI: 9.6 µM
ACHN renal
  TGI: 3.52 µM
TK-10 renal
  TGI: 3.35 µM
IGROV1 ovarian
  TGI: 23 µM
DU-145 prostate
  TGI: 19.6 µM
OVCAR-5 ovarian
  TGI: 32.6 µM
MDA-MB-435
  TGI: 8.41 µM

## Nc1cc(Cl)cc2cc(Cl)cnc12
MDA-N
  TGI: > 100 µM
SK-OV-3 ovarian
  TGI: > 100 µM
EKVX NSCLC
  TGI: > 100 µM
HS 578T breast
  TGI: > 100 µM
MALME-3M melanoma
  TGI: > 100 µM
SK-MEL-28 melanoma
  TGI: > 100 µM
HL-60(TB) leukemia
  TGI: > 100 µM
SR leukemia
  TGI: > 100 µM
RPMI-8226 leukemia
  TGI: > 100 µM
RXF 393 renal
  TGI: > 100 µM
OVCAR-8 ovarian
  TGI: > 100 µM
ACHN renal
  TGI: > 100 µM
TK-10 renal
  TGI: > 100 µM
IGROV1 ovarian
  TGI: > 100 µM
DU-145 prostate
  TGI: > 100 µM
OVCAR-5 ovarian
  TGI: > 100 µM
MDA-MB-435
  TGI: > 100 µM

## CC1=NN(c2ccccc2)C2(C1)C(Cl)C(=O)N2c1nc2ccccc2s1 (stereo not drawn)
MDA-N
  TGI: > 100 µM
SK-OV-3 ovarian
  TGI: > 100 µM
EKVX NSCLC
  TGI: > 100 µM
HS 578T breast
  TGI: > 100 µM
MALME-3M melanoma
  TGI: > 100 µM
SK-MEL-28 melanoma
  TGI: > 100 µM
HL-60(TB) leukemia
  TGI: 55.5 µM
SR leukemia
  TGI: 80 µM
RPMI-8226 leukemia
  TGI: 67.2 µM
RXF 393 renal
  TGI: 97.7 µM
OVCAR-8 ovarian
  TGI: > 100 µM
ACHN renal
  TGI: > 100 µM
TK-10 renal
  TGI: > 100 µM
IGROV1 ovarian
  TGI: > 100 µM
DU-145 prostate
  TGI: > 100 µM
OVCAR-5 ovarian
  TGI: > 100 µM
MDA-MB-435
  TGI: > 100 µM

## CCOC(=O)CC[C@H](N)C(=O)N[C@@H](Cc1ccc(N(CCCl)CCCl)cc1)C(=O)OCC
MDA-N
  TGI: 2.57 µM
SK-OV-3 ovarian
  TGI: 4.99 µM
EKVX NSCLC
  TGI: 6.11 µM
HS 578T breast
  TGI: 4.92 µM
MALME-3M melanoma
  TGI: 0.823 µM
SK-MEL-28 melanoma
  TGI: 2.38 µM
HL-60(TB) leukemia
  TGI: 1.33 µM
SR leukemia
  TGI: > 42.2 µM
RPMI-8226 leukemia
  TGI: 28.4 µM
RXF 393 renal
  TGI: 2.14 µM
OVCAR-8 ovarian
  GI50: 0.564 µM
  TGI: 1.99 µM
ACHN renal
  TGI: 1.72 µM
TK-10 renal
  TGI: 4.26 µM
IGROV1 ovarian
  TGI: 4.75 µM
DU-145 prostate
  TGI: 5.56 µM
OVCAR-5 ovarian
  TGI: 6.78 µM
MDA-MB-435
  TGI: 2.83 µM

## CCOc1cccc(C=Nc2ccccc2SSc2ccccc2N=Cc2cccc(OCC)c2O)c1O
MDA-N
  TGI: 37.7 µM
SK-OV-3 ovarian
  TGI: 52 µM
EKVX NSCLC
  TGI: 19 µM
HS 578T breast
  TGI: 90.7 µM
MALME-3M melanoma
  TGI: 23.6 µM
SK-MEL-28 melanoma
  TGI: 26.2 µM
HL-60(TB) leukemia
  TGI: 14.8 µM
SR leukemia
  TGI: 28.2 µM
RPMI-8226 leukemia
  TGI: 35.9 µM
RXF 393 renal
  TGI: 34.9 µM
OVCAR-8 ovarian
  TGI: 8.33 µM
ACHN renal
  TGI: 29.3 µM
TK-10 renal
  TGI: 51.4 µM
IGROV1 ovarian
  TGI: 15.9 µM
DU-145 prostate
  TGI: 30.9 µM
OVCAR-5 ovarian
  TGI: 14.6 µM
MDA-MB-435
  TGI: 23.7 µM

## C=CCN1C(=O)/C(=C/c2ccc(Cl)cc2)N=C1SC/C=C/C
MDA-N
  TGI: > 100 µM
SK-OV-3 ovarian
  TGI: > 100 µM
EKVX NSCLC
  TGI: > 100 µM
HS 578T breast
  TGI: > 100 µM
MALME-3M melanoma
  TGI: > 100 µM
SK-MEL-28 melanoma
  TGI: > 100 µM
HL-60(TB) leukemia
  TGI: 57.5 µM
SR leukemia
  TGI: 46.7 µM
RPMI-8226 leukemia
  TGI: 47.3 µM
RXF 393 renal
  TGI: 55.3 µM
OVCAR-8 ovarian
  TGI: > 100 µM
ACHN renal
  TGI: > 100 µM
TK-10 renal
  TGI: > 100 µM
IGROV1 ovarian
  TGI: > 100 µM
DU-145 prostate
  TGI: > 100 µM
OVCAR-5 ovarian
  TGI: > 100 µM
MDA-MB-435
  TGI: > 100 µM

## O=C1c2ccccc2-c2nnc(-c3ccc([N+](=O)[O-])cc3)cc21
MDA-N
  TGI: > 10 µM
SK-OV-3 ovarian
  TGI: > 10 µM
EKVX NSCLC
  TGI: > 10 µM
HS 578T breast
  TGI: > 10 µM
MALME-3M melanoma
  TGI: > 10 µM
SK-MEL-28 melanoma
  TGI: > 10 µM
HL-60(TB) leukemia
  TGI: > 10 µM
SR leukemia
  TGI: > 10 µM
RPMI-8226 leukemia
  TGI: > 10 µM
RXF 393 renal
  TGI: > 10 µM
OVCAR-8 ovarian
  TGI: > 10 µM
ACHN renal
  TGI: > 10 µM
TK-10 renal
  TGI: > 10 µM
IGROV1 ovarian
  TGI: > 10 µM
DU-145 prostate
  TGI: > 10 µM
OVCAR-5 ovarian
  TGI: > 10 µM
MDA-MB-435
  TGI: > 10 µM

## C[N+]12CCCCC1C(COc1cccc3cccnc13)CCC2 (stereo not drawn)
MDA-N
  TGI: > 100 µM
SK-OV-3 ovarian
  TGI: > 100 µM
EKVX NSCLC
  TGI: > 100 µM
HS 578T breast
  TGI: > 100 µM
MALME-3M melanoma
  TGI: > 100 µM
SK-MEL-28 melanoma
  TGI: > 100 µM
HL-60(TB) leukemia
  TGI: > 100 µM
SR leukemia
  TGI: > 100 µM
RPMI-8226 leukemia
  TGI: > 100 µM
RXF 393 renal
  TGI: > 100 µM
OVCAR-8 ovarian
  TGI: > 100 µM
ACHN renal
  TGI: > 100 µM
TK-10 renal
  TGI: > 100 µM
IGROV1 ovarian
  TGI: > 100 µM
DU-145 prostate
  TGI: > 100 µM
OVCAR-5 ovarian
  TGI: > 100 µM
MDA-MB-435
  TGI: > 100 µM

## CC(NC(=O)OCc1ccccc1)NC(=O)OC(C)(C)C (stereo not drawn)
MDA-N
  TGI: > 100 µM
SK-OV-3 ovarian
  TGI: > 100 µM
EKVX NSCLC
  TGI: > 100 µM
HS 578T breast
  TGI: > 100 µM
MALME-3M melanoma
  TGI: > 100 µM
SK-MEL-28 melanoma
  TGI: > 100 µM
HL-60(TB) leukemia
  TGI: > 100 µM
SR leukemia
  TGI: > 100 µM
RPMI-8226 leukemia
  TGI: > 100 µM
RXF 393 renal
  TGI: 84.3 µM
OVCAR-8 ovarian
  TGI: > 100 µM
ACHN renal
  TGI: > 100 µM
TK-10 renal
  TGI: > 100 µM
IGROV1 ovarian
  TGI: > 100 µM
DU-145 prostate
  TGI: > 100 µM
OVCAR-5 ovarian
  TGI: > 100 µM
MDA-MB-435
  TGI: > 100 µM

## O=c1[nH]c2cccc([N+](=O)[O-])c2c(=O)n1-c1ccc(Cl)cc1
MDA-N
  TGI: 26.6 µM
SK-OV-3 ovarian
  TGI: 28 µM
EKVX NSCLC
  TGI: 28 µM
HS 578T breast
  TGI: 42 µM
MALME-3M melanoma
  TGI: 27.6 µM
SK-MEL-28 melanoma
  TGI: 26.8 µM
HL-60(TB) leukemia
  TGI: 53.3 µM
SR leukemia
  TGI: 35.2 µM
RPMI-8226 leukemia
  TGI: 36.1 µM
RXF 393 renal
  TGI: 37.1 µM
OVCAR-8 ovarian
  TGI: 29.4 µM
ACHN renal
  TGI: 25.1 µM
TK-10 renal
  TGI: 39 µM
IGROV1 ovarian
  TGI: 40.1 µM
DU-145 prostate
  TGI: 41.1 µM
OVCAR-5 ovarian
  TGI: 36.5 µM
MDA-MB-435
  TGI: 25.5 µM

## CC(C)OC(=O)c1ccc(NCC2=CC(=O)C=CC2=O)cc1
MDA-N
  TGI: 29.2 µM
SK-OV-3 ovarian
  TGI: > 100 µM
EKVX NSCLC
  TGI: 31.7 µM
HS 578T breast
  TGI: 65.4 µM
MALME-3M melanoma
  TGI: 22.7 µM
SK-MEL-28 melanoma
  TGI: 33 µM
HL-60(TB) leukemia
  TGI: 5.24 µM
SR leukemia
  TGI: 8.37 µM
RPMI-8226 leukemia
  TGI: > 24.8 µM
RXF 393 renal
  TGI: 26.2 µM
OVCAR-8 ovarian
  TGI: 29.7 µM
ACHN renal
  TGI: 24.3 µM
TK-10 renal
  TGI: 28.6 µM
IGROV1 ovarian
  TGI: 26.4 µM
DU-145 prostate
  TGI: 35.8 µM
OVCAR-5 ovarian
  TGI: 38.9 µM
MDA-MB-435
  TGI: 26.4 µM
